Like-named read-outs stand apart in the source and are kept apart here.

Consider 36 molecules from patent US9868737B2, “Pyridino[1,2-A]pyrimidone analogue used as MTOR/P13K inhibitor” (CISEN PHARMACEUTICAL CO., LTD., priority 2014, dated 2018).

This test relates to MCF-7 cells. In words: In vitro test of cell activity (MCF-7 cells, insulin stimulation, ELISA-One fluorescence). Particulars: for IC50 / inhibition at 0.5 µM / inhibition at 0.25 µM / inhibition at 1 µM: Homo sapiens, MCF7, MCF-7 cells; for inhibition at 0.5 µM: conc. 0.5 μM; for inhibition at 0.25 µM: conc. 0.25 μM. It counts as cell-based. On the procedure:
Example In Vitro Tests of Cell Activities Experimental Steps and Methods:
1) MCF-7 cells were inoculated at the density of 2.5×10^4 cells/well into 96-well plates (the culture medium used should be a complete culture medium containing 10% FBS).
2) On the next day, the medium in each well was drawn out. A certain concentration (preliminary screening) or a series of concentration (IC50 test) of compounds were dissolved in a culture medium without serum and added to the 96-well plates to culture cells for 2 hours.
3) Insulin was dissolved in a culture medium without serum, added to the cultured cells and incubated for 30 minutes, wherein the final concentration of insulin was […].
4) A lysis solution was prepared according to the following method during the waiting period for the reaction:
a) Enhancer solution was removed from the refrigerator to melt in advance.
b) Enhancer solution was diluted 10 times with the 5× Lysis Buffer to give a concentrated lysis solution.
c) The concentrated lysis solution was diluted 5 times with double distilled water to give the lysis solution.
5) The medium in each well was completely removed and each well was quickly rinsed with PBS once.
6) 150 μl of the freshly prepared lysis solution was added to each well and shaked at room temperature for 10 minutes.
7) After confirming that all cells were detached, the lysis solution together with the cell fragments was transferred into a 1.5 ml tube.
8) The tube was shaked on vortes mixer to make the lysis solution and cells mix completely and then the mixture was centrifugated at 4° C. under 12000 g for 10 minutes.
9) The number of strips of ELISA-one micro-well plate that is required was calculated. The needless strips were removed from the frame, put back into the storage bag and sealed. Before the strips of micro-well plate were used, 200 μl of double distilled water was used to rinse each well to remove preservative.
10) 50 μl of antibody mixture was added to each well. (The antibody mixture solution was prepared by mixing the medium antibody reagent and the enzyme labeled antibody reagent with an equal proportion. The preparation of antibody mixture didn't need vortex.)
11) 25 μl of cell lysates was added to each well of ELISA-One micro-well plate. The micro-well plate was covered with adhesive sealing film and incubated on a micro-well plate oscillation instrument at room temperature for 1 hour.
12) Each well was rinsed with 150 μl of 1× rinsing buffer 3 times. After the last rinsing, the rinsing buffer in the well was completely removed. If necessary, the 1× rinsing buffer could be allowed to stay in the micro-well plate for up to 30 minutes so that the substrate mixed solution could be prepared during such time period.
13) The substrate mixed solution should be prepared just before each use, 10 μl of the substrate mixed solution was added to each well and the micro-well plate was sealed with tin-foil and incubated on the micro-well plate oscillation instrument at room temperature for 10 minutes.
14) 10 μl of stop solution was added to each well and mixed slightly (5-10 seconds) on the micro-well plate oscillation instrument.
15) The corresponding ELISA-One filter group was assembled and used to read the fluorescence signal intensity.
(In an ELISA, binding on a coated surface is turned into a signal by an enzyme label.)

The mark [1] stands for this setting: conc. 1 μM, read-out: % inhibition AKT.
Where [2] appears, read: conc. 1 μM, read-out: % inhibition p70s6k.

Broadly, the IC50 is the concentration that gives 50% inhibition. Consider `COc1ncc(-c2ccc3ncc(OCC4(C)COC4)c(=O)n3c2)cc1NS(=O)(=O)c1sc(C)nc1C` [compound 197], for which the IC50 (read-out: IC50 p-AKT) is at most 50 nM.

One may read the inhibition as the drop in the measured response relative to a control, in per cent. Regarding `COc1ncc(-c2cn3c(=O)ccnc3cn2)cc1NS(=O)(=O)c1ccccc1Cl` [compound 51], the inhibition at 0.5 µM was 64.1% (read-out: % inhibition AKT) and 13.6% (read-out: % inhibition p70s6k).

As to `COc1ncc(-c2ccc3ncc(F)c(=O)n3c2)cc1NS(=O)(=O)c1ccccc1F` [compound 64], the inhibition at 0.5 µM is, setting by setting: (read-out: % inhibition AKT) 87.8%; (read-out: % inhibition p70s6k) 91.7%. Further, the IC50 is, setting by setting: (read-out: IC50 p-AKT) at most 50 nM; (read-out: IC50 p-p70S6K) at most 50 nM.

Regarding `COc1ncc(-c2cn3c(=O)ccnc3cc2C)cc1NS(=O)(=O)c1ccccc1F` [compound 123], the inhibition at 0.5 µM is -82.1% (read-out: % inhibition AKT) and 6.7% (read-out: % inhibition p70s6k).

On to `COc1ncc(-c2ccc3nccc(=O)n3c2C)cc1NS(=O)(=O)c1ccccc1F` [compound 55], for which the inhibition at 0.5 µM (read-out: % inhibition AKT) is 65.7% and the inhibition at 0.5 µM (read-out: % inhibition p70s6k) was found to be 42.3%.

`COc1ncc(-c2cn3c(=O)ccnc3cc2C)cc1NS(=O)(=O)c1ccc(F)cc1Cl` [compound 128]: the inhibition at 0.5 µM reads like this: (read-out: % inhibition AKT) -1.1%; (read-out: % inhibition p70s6k) 0.4%.

As for `COCCOc1cnc2ccc(-c3cnc(OC)c(NS(=O)(=O)c4ccc(F)cc4F)c3)cn2c1=O` [compound 175, 2,4-difluoro-N-(2-methoxy-5-(3-(2-methoxyethoxy)-4-oxo-4H-pyrido[1,2-a]pyrimidin-7-yl)pyridin-3-yl)benzsulfamide], the inhibition at 0.25 µM runs as follows: (read-out: % inhibition AKT) 75.2%; (read-out: % inhibition p70s6k) 65.4%. Moreover, the IC50 is, setting by setting: (read-out: IC50 p-AKT) 50 to 100 nM; (read-out: IC50 p-p70S6K) 100 to 250 nM.

With `COc1ncc(-c2ccc3ncc(N)c(=O)n3c2)cc1NS(=O)(=O)c1ccccc1F` [compound 90], the inhibition at 0.5 µM is, setting by setting: (read-out: % inhibition AKT) 92.7%; (read-out: % inhibition p70s6k) 87.9%. Moreover, the IC50 by setting is: (read-out: IC50 p-AKT) at most 50 nM; (read-out: IC50 p-p70S6K) 100 to 250 nM.

As for `COc1ncc(-c2ccc3ncc(Cl)c(=O)n3c2)cc1NS(=O)(=O)c1cccc(F)c1` [compound 138], the inhibition at 0.5 µM (read-out: % inhibition AKT) was found to be 68.9% and the inhibition at 0.5 µM (read-out: % inhibition p70s6k) was 73.8%.

Turning to `O=c1ccnc2ccc(-c3cnc(Cl)c(NS(=O)(=O)c4ccc(F)cc4F)c3)cn12` [compound 16], the inhibition at 1 µM stood at 91.6% under setting [1] and 75.1% under setting [2]. Also, the IC50 was at most 50 nM (read-out: IC50 p-AKT) and over 250 nM (read-out: IC50 p-p70S6K).

In the case of `COc1ncc(-c2ccc3ncc(OC)c(=O)n3c2)cc1NS(=O)(=O)c1sc(N)nc1C` [compound 109], the IC50 (read-out: IC50 p-AKT) is at most 50 nM.

For the molecule `COc1ncc(-c2ccc3ncc(OC)c(=O)n3c2)cc1NS(=O)(=O)c1sccc1C` [compound 110], for the setting “read-out: IC50 p-AKT”, the IC50 lay within 50 to 100 nM.

Regarding `COc1ncc(-c2cn3c(=O)ccnc3cn2)cc1NS(=O)(=O)c1ccc(C)nc1` [compound 45], the inhibition at 0.5 µM runs as follows: (read-out: % inhibition AKT) 15.2%; (read-out: % inhibition p70s6k) -1%.

Consider `COc1ncc(-c2ccc3ncc(N)c(=O)n3c2)cc1NS(=O)(=O)c1sc(N)nc1C` [compound 94], for which the IC50 (read-out: IC50 p-AKT) was at most 50 nM.

As to `COCCOc1cnc2ccc(-c3cnc(OC)c(NS(=O)(=O)C4CCCCC4)c3)cn2c1=O` [compound 212], for the setting “read-out: IC50 p-AKT”, the IC50 was over 250 nM.

Consider `COc1ccc(S(=O)(=O)Nc2cc(-c3ccc4nccc(=O)n4c3)cnc2OC)cc1` [compound 24], for which the inhibition at 1 µM turned out to be 94.6% under setting [1] and 93.2% under setting [2]. Besides, the IC50 reads like this: (read-out: IC50 p-AKT) 50 to 100 nM; (read-out: IC50 p-p70S6K) 100 to 250 nM.

Consider `COCCOc1cnc2ccc(-c3cnc(OC)c(NS(=O)(=O)c4ccc(N)nc4C)c3)cn2c1=O` [compound 190], for which, under “read-out: IC50 p-AKT”, the IC50 was at most 50 nM.

On to `COCCOc1cnc2ccc(-c3cnc(OC)c(NS(=O)(=O)c4sc(Cl)cc4C)c3)cn2c1=O` [compound 196], for which the IC50 (read-out: IC50 p-AKT) was at most 50 nM.

Regarding `Cc1ncc(-c2ccc3nccc(=O)n3c2)cc1NS(=O)(=O)c1ccc(F)cc1F` [compound 14], for the setting “MCF-7 cells, conc. 1 μM”, the “% inhibition AKT” value came to 81.4% and the “% inhibition p70s6k” value came out at 47.3%.

On to `COc1ncc(-c2ccc3nccc(=O)n3c2C)cc1NS(=O)(=O)c1cc(F)ccc1F` [compound 60], for which the inhibition at 0.5 µM was 67.9% (read-out: % inhibition AKT) and 43.9% (read-out: % inhibition p70s6k).

For the molecule `COc1ncc(-c2ccc3ncc(-n4ccc(C)n4)c(=O)n3c2)cc1NS(=O)(=O)c1sc(C)nc1C` [compound 218], the inhibition at 0.25 µM (read-out: % inhibition AKT) came out at 85.2% and the inhibition at 0.25 µM (read-out: % inhibition p70s6k) was determined as 85%. In addition, the IC50 (read-out: IC50 p-AKT) lay within 100 to 250 nM and the IC50 (read-out: IC50 p-p70S6K) was in the range of 100 to 250 nM.

Take `COCCOc1cnc2ccc(-c3cnc(OC)c(NS(=O)(=O)c4sc(N)nc4C)c3)cn2c1=O` [compound 183]: the IC50 (read-out: IC50 p-AKT) was at most 50 nM.

As for `COc1ncc(-c2ccc3nccc(=O)n3c2)cc1NS(=O)(=O)CC(F)(F)F` [compound 13], the inhibition at 1 µM came out at 78.3% under setting [1] and 53% under setting [2].

For `COc1ncc(-c2ccc3ncc(F)c(=O)n3c2)cc1NS(=O)(=O)c1ccc(C(F)(F)F)cc1` [compound 69], the inhibition at 0.5 µM (read-out: % inhibition AKT) came to 85.4% and the inhibition at 0.5 µM (read-out: % inhibition p70s6k) amounted to 87.6%. Further, the IC50 reads like this: (read-out: IC50 p-AKT) at most 50 nM; (read-out: IC50 p-p70S6K) 50 to 100 nM.

`COCCOc1cnc2ccc(-c3cnc(OC)c(NS(=O)(=O)c4ccc(C)nc4C)c3)cn2c1=O` [compound 192]: the IC50 (read-out: IC50 p-AKT) is at most 50 nM.

With `COc1ncc(-c2ccc3nc(C)cc(=O)n3c2)cc1NS(=O)(=O)c1ccc(C(F)(F)F)cc1` [compound 223], the inhibition at 0.25 µM was 17.9% (read-out: % inhibition AKT) and -1.5% (read-out: % inhibition p70s6k).

Take `COc1ncc(-c2ccc3ncc(F)c(=O)n3c2)cc1NS(=O)(=O)c1ccc(F)cc1C` [compound 66]: the inhibition at 0.5 µM is 89% (read-out: % inhibition AKT) and 91.3% (read-out: % inhibition p70s6k). Also, the IC50 was at most 50 nM (read-out: IC50 p-AKT) and at most 50 nM (read-out: IC50 p-p70S6K).

As for `COc1ncc(-c2ccc3ncc(Cl)c(=O)n3c2)cc1NS(=O)(=O)c1cnc(C)[nH]1` [compound 155], the inhibition at 0.25 µM (read-out: % inhibition AKT) is 29.8% and the inhibition at 0.25 µM (read-out: % inhibition p70s6k) worked out at 42.2%.

With `COCCNc1cnc2ccc(-c3cnc(OC)c(NS(=O)(=O)c4sc(C)nc4C)c3)cn2c1=O` [compound 99], the IC50 (read-out: IC50 p-AKT) is at most 50 nM.

Regarding `COc1ncc(-c2cn3c(=O)ccnc3cc2F)cc1NS(=O)(=O)c1ccc(C(F)(F)F)cc1` [compound 118], the inhibition at 0.5 µM (read-out: % inhibition AKT) was 27.8% and the inhibition at 0.5 µM (read-out: % inhibition p70s6k) turned out to be 11.5%.

In the case of `COc1ncc(-c2ccc3nccc(=O)n3c2)cc1NS(=O)(=O)c1ccccc1C` [compound 20], the inhibition at 1 µM under setting [1] was 93.8% and the inhibition at 1 µM under setting [2] turned out to be 89.9%. The IC50 runs as follows: (read-out: IC50 p-AKT) at most 50 nM; (read-out: IC50 p-p70S6K) 100 to 250 nM.

Turning to `COc1ncc(-c2ccc3ncc(N(C)C)c(=O)n3c2)cc1NS(=O)(=O)c1ccc(F)cc1F` [compound 96], the IC50 (read-out: IC50 p-AKT) was over 250 nM.

Take `COc1ncc(-c2ccc3ncc(OCC4OCCO4)c(=O)n3c2)cc1NS(=O)(=O)c1sc(C)nc1C` [compound 186]: the IC50 (read-out: IC50 p-AKT) is at most 50 nM.

Turning to `COc1ncc(-c2ccc3ncc(OCC4COC4)c(=O)n3c2)cc1NS(=O)(=O)c1sc(C)nc1C` [compound 185], the IC50 (read-out: IC50 p-AKT) was at most 50 nM.

On to `COc1ncc(-c2ccc3ncc(C)c(=O)n3c2)cc1NS(=O)(=O)c1cccc(F)c1` [compound 86], for which the inhibition at 0.5 µM reads like this: (read-out: % inhibition AKT) 92.8%; (read-out: % inhibition p70s6k) 88.1%. Besides, the IC50 is at most 50 nM (read-out: IC50 p-AKT) and 100 to 250 nM (read-out: IC50 p-p70S6K).

Turning to `Cc1ncc(-c2ccc3nccc(=O)n3c2)cc1NS(=O)(=O)c1ccc(F)cc1F` [compound 7], the inhibition at 1 µM came to 81.3% under setting [1] and 50.1% under setting [2].
